These are literature values, as cited in patent publication US20260137743A1, “METHODS OF RELIEVING PAIN” (Infinitum Health, LLC, priority 2023, published 2026).

For the series the following is noted: isolated from Incarvillea sinensis.

In the case of `COc1cc([C@H]2[C@H](C(=O)O[C@@H]3C[C@@H]4[C@@H](CN(C)C[C@@H]4C)[C@@H]3C)[C@H](c3ccc(O)c(OC)c3)[C@H]2C(=O)O[C@@H]2C[C@@H]3[C@@H](CN(C)C[C@@H]3C)[C@@H]2C)ccc1O` [Incarvillateine, incarvillateine], the “analgesic (pain relief) activity” value is “significant analgesic (pain relief) activity”.
